Measured values from article PMC10304221, “Pharmacokinetic and Biomarker Quantification Studies on Vancomycin-Loaded PEGylated Liposomes and Its Potential to Reduce Vancomycin-Induced Kidney Injury: A Rat Study” (Pharmaceutics, 2023).
Counter-ions that a name gives are not always drawn.

What was measured:
[1] = stated in the chemicals section, no method or reference given, cited from earlier work
Method: The 0.9% NaCl (Sing-Tong, Taiwan), Acetonitrile (CAN; Fisher Scientific U.K. Ltd., Loughborough, England), Bupivacaine (Marcaine®; AstraZeneca, Cambridge, UK), formic acid (FA; Merck, Germany), DMSO (Merck, Darmstadt, Germany), Ketalar injection (50 mg/mL; Pfizer, New York, NY, USA), methanol (MeOH; AENCORE, Australia), PBS (Sigma, USA), pentobarbital (Health-Tech Pharmaceutical Co., Ltd., Taiwan), Rompun injection (2%; Bayer, Leverkusen, Germany), and sodium heparin bodene (Pty) (Limited Trading as Intramed, Maharashtra, India). Acetonitrile, chloroform, and methanol VWR International (Radno ...

[2] = Plasma pharmacokinetics of vancomycin in rats, LC-MS/MS with non-compartmental analysis; details: rat plasma
[3] = day three, 150 mg/kg IV 3 min infusion qd x3, NCA, LC-MS/MS, mean, n = 6

## CN[C@H](CC(C)C)C(=O)N[C@H]1C(=O)N[C@@H](CC(N)=O)C(=O)N[C@H]2C(=O)N[C@H]3C(=O)N[C@H](C(=O)N[C@H](C(=O)O)c4cc(O)cc(O)c4-c4cc3ccc4O)[C@H](O)c3ccc(c(Cl)c3)Oc3cc2cc(c3O[C@@H]2O[C@H](CO)[C@@H](O)[C@H](O)[C@H]2O[C@H]2C[C@](C)(N)[C@H](O)[C@H](C)O2)Oc2ccc(cc2Cl)[C@H]1O [Vancomycin Hydrochloride, Vancomycin hydrochloride]
[1]; acetone, ether, chloroform
  Solubility in acetone, ether, and chloroform: insoluble
[1]; methanol
  Solubility in methanol: moderately soluble
[1]; water
  Solubility in water: more than 100 mg/mL
[2]; day one at 0.5 and 1 h, day three at 1, 2 and 4 h, 150 mg/kg IV qd x3, n = 3, p ≤ 0.05, Tukey's two-way ANOVA
  Reduction in plasma vancomycin concentration compared to the PEG-VANCO-lipo group: 2–5 fold
[2]; day three, 150 mg/kg IV 3 min infusion qd x3, NCA (WinNonlin), LC-MS/MS, mean, n = 6
  t1/2: 13.26 h
[2]; [3]
  AUCINF: 1461.44 µg·h/mL
  C0 (initial concentration estimated by back-extrapolation): 186.69 µg/mL
  CL: 0.1052 L/h/kg
  MRT: 17.073 h
